{"source": "patent US20190262330A1", "about": "“Method of Treating Hepatocellular Carcinoma Using N-(4-(6,7-dimethoxyquinolin-4-yloxy)phenyl)-N′-(4-fluorophenyl)cyclopropane-1,1-dicarboxamide, (2S)-hydroxybutanedioate” (Exelixis, Inc., priority 2017, published 2019)", "key": {"[1]": {"biological_target": "RET (Homo sapiens, UniProt P07949)", "sequence (P07949 29-1114)": "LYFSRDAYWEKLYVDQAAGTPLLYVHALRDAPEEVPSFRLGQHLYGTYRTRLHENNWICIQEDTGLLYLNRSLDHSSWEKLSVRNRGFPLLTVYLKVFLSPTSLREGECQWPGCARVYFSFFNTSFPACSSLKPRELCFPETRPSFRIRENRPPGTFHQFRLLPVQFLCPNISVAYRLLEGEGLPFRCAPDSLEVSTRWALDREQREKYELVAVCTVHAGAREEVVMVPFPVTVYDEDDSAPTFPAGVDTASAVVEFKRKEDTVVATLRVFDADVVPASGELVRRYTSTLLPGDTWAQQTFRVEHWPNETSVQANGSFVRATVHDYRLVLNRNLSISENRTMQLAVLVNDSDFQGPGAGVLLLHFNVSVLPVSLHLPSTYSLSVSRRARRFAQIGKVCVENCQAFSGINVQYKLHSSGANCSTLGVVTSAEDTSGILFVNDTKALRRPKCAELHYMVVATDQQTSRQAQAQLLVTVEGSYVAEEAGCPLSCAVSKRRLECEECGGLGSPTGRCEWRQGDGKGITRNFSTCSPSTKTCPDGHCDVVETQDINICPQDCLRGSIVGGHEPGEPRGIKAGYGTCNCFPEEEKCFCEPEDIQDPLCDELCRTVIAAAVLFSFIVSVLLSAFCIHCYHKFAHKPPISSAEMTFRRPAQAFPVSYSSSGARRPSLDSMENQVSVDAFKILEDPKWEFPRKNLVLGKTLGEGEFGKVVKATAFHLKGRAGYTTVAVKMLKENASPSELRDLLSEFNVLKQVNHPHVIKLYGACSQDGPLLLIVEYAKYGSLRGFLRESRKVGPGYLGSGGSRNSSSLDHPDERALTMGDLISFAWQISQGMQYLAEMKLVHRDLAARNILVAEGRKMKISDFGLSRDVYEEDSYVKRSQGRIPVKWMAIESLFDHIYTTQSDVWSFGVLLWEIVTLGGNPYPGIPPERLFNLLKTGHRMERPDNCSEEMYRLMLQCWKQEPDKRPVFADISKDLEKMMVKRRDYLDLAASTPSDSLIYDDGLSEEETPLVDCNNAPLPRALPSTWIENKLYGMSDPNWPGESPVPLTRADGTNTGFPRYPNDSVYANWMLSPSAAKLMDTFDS", "test": "In vitro biochemical and/or cellular kinase assays"}, "[2]": {"system": "pregnant rats", "test": "Embryo-fetal development study in pregnant rats", "details": "daily oral, throughout organogenesis"}}, "data": [{"smiles": "COc1cc2nccc(Oc3ccc(NC(=O)C4(C(=O)Nc5ccc(F)cc5)CC4)cc3)c2cc1OC", "note": "[cabozantinib]", "values": [{"measurement": "Tyrosine kinase activity of RET", "setting": "[1]", "value": "inhibits"}, {"measurement": "Dose with delayed ossification and skeletal variations", "setting": "[2]", "value": 0.01, "unit": "mg/kg/day"}]}]}
